Test results taken from paper PMC11513893, “Discovery of Oral Degraders of the ROS1 Fusion Protein with Potent Activity against Secondary Resistance Mutations” (Journal of Medicinal Chemistry, 2024).
Like-named read-outs stand apart in the source and are kept apart here.

Legend:
[1] = system: Ba/F3 CD74-ROS1 non mutant; test: Antiproliferation assay (Alamar Blue, 72 h); format: cell-based, mouse; conditions: cell growth inhibition
Log P measurement = format: physicochemical
From the text: An important physicochemical property for a PROTAC molecule is its lipophilicity that largely dictates its pharmaceutical performance such as absorption, permeability, and distribution.

[2] = Metabolic stability in human microsomes; format: in vitro ADME; conditions: 250 nM compound, NADPH, 37 °C; for microsomal CLint at 1 h, 0.25 µM / half-life at 1 h, 0.25 µM: human, pooled human microsomes, pH 7.4; for half-life at 1 h, 0.25 µM: read-out: metabolic stability in human microsomes T1/2
Experimental: (§1) Pooled human and rat microsomes were prepared and stored at −80 °C prior to use. A master-mix containing microsome, phosphate buffer, and test compound (9 series) solution was made as follows: (1) 3 μL of microsome (20 mg/mL) was diluted with mixed 30 μL of potassium phosphate buffer (pH 7.4; 10×) and 246 μL of water; (2) 3 μL of 25 μM drug solution was added to the microsome; (3) the master solution was prewarmed at 37 °C for 5 min. NADPH solution A (15 μL) and NADPH solution B (3 μL) from Promega were added to the above-mentioned master solution to initiate the reaction. The final concentration of 9 compounds in the reaction system was 250 nM. An aliquot of 20 μL was pipetted from the reaction solution and stopped by the addition of 180 μL of cold MeCN containing 25 ng of Tamoxifen-(N,N-dimethyl-13C2)-15N as an internal standard at the designated time points (0, 5, 15, 30, 45, and 60 min). The incubation solution was vortexed-mixed (800 rpm/10 min) and centrifuged at 3500 rpm for 10 min to precipitate proteins. The supernatant was collected and used for the LC/MS/MS analysis. The natural log of the remaining percentage of the test compound was plotted against time and the gradient of the line was determined.

[3] = Pharmacokinetics study in Sprague–Dawley rats; format: in vivo; conditions: rat
ROS1 = ROS1 degradation in Ba/F3 cells (WES immunoblotting); format: cell-based; conditions: for DC50: concentration needed to reduce ROS1 protein by 50%, Ba/F3 cells; for Dmax (%) (ROS1): maximal degradation of ROS1 in Ba/F3 cells
How it was run: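 ROS1 and phospho-ROS1 (Tyr2274/2334) in Ba/F3 lysates quantified by capillary immunoassay (WES) with chemiluminescent detection, duplicate experiments. Levels expressed as AUC of the chemiluminescence peak.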

[4] = Metabolic stability in rat microsomes; format: in vitro ADME; conditions: 250 nM compound, NADPH, 37 °C; for microsomal CLint at 1 h, 0.25 µM / half-life at 1 h, 0.25 µM: rat, pooled rat microsomes, pH 7.4; for half-life at 1 h, 0.25 µM: read-out: metabolic stability in rat microsomes T1/2
Experimental: as §1

[5] = Pharmacokinetics study in Sprague–Dawley rats; format: in vivo; conditions: rat; for bioavailability: 10 mg/kg po vs 1 mg/kg iv; for AUC: read-out: AUC (po)
Experimental: Four to 6 weeks old Sprague–Dawley rats [Crl: CD (SD)] (SPF/VAF) were purchased from Charles River (Wilmington MA). Animals were quarantined/acclimated for 2–6 weeks prior to dose initiation. Sprague–Dawley rats were given oral administration of test compounds (20% PG, 5% Solutol, and 75% of 20% HP-β-CD in water) at different dose levels. After treatment with the compounds, whole blood was collected from each study animal by puncture of the tail vein (0.4 mL of whole blood from rats) into tubes containing K2EDTA at each time point. The plasma samples were divided into 2 aliquots (approximately equal in volume) and stored frozen at −75 ± 15 °C within 2 h of the collection until analysis.
The stock solution of the test compound (0.01 M) in DMSO was prepared and stored at −20 ± 5 °C. The desired serial concentrations of working reference analyte solutions were achieved by diluting a stock analyte solution with 50% acetonitrile (0.1% formic acid) in water solution. The bioanalytical LC–MS/MS method was developed for quantitative determination of each test compound in Sprague–Dawley rat plasma with acceptable selectivity, sensitivity, calibration curve, precision, and accuracy. The analytical method is applicable for the determination of test compounds in Sprague–Dawley rat plasma with a lower limit of quantification of 10.0 ng/mL and an upper limit of quantification of 5000 ng/mL. Five microliters of diluted supernatant was injected into the LC–MS/MS system (TSQ Quantis) and a SynergiTM 4 μm Fusion-RP 80 Å (50 × 2 mm) column using gradient elution and a Triple Quad mass spectrometer) for quantitative analysis. The mobile phases used were 0.1% formic acid in deionized water and 0.1% formic acid in acetonitrile. The pharmacokinetic parameters T1/2 (the biological half-life), Cmax (maximal concentration), Tmax (time at which Cmax is observed), and AUC (area under the plasma concentration–time curve) were calculated from the plasma concentration versus time data using WinNonlin (PhoenixTM, version 8.1, Mountain View, CA, USA).

Ba/F3 ROS1-G2032R = test: Antiproliferation assay; format: cell-based, mouse; conditions: Ba/F3 cells, cell growth inhibition, 72 h
Ba/F3 ROS1 L2026M = test: Antiproliferation assay; format: cell-based; conditions: Mus musculus, BaF3; Ba/F3 cells, cell growth inhibition
From the text: (§2) To assess targeted degradation of ROS1 fusion proteins, we first established a mouse pro-B cell line Ba/F3 as a model expressing the CD74-ROS1 oncogene or CD74-ROS1 with clinically observed secondary/tertiary mutations. The Ba/F3 cell line is dependent on interleukin-3 for survival and proliferation. Upon transduction of oncogenic ROS1, Ba/F3 cells become independent of interleukin-3 but dependent on the transduced driver gene.
(§3) Ba/F3 immortalized murine bone marrow–derived pro-B cells were obtained from Creative Biogene (Shirley, NY) and cultured in RPMI supplemented with 10% FBS and IL3 (0.5 ng/mL). Ba/F3 cells expressing ROS1 variants were maintained in RPMI supplemented with 10% FBS and puromycin (0.7 mg/mL). […] Each compound was dissolved in DMSO and serially diluted in RPMI for cell culture experiments.
(§4) To assess the 72 h effect of drug treatment on cell proliferation, 2000 to 3000 cells were plated in replicates of three in 96-well plates. The plates were placed in an incubator at 37 °C, 5% CO2 for 72 h. Following drug treatments, the cells were incubated with the Alamar Blue Assay reagent (BioRad), 5 μL each well for 4 h at 37 °C and 5% CO2. Luminescence was measured on a multiplate reader and analyzed. […] IC50 values were determined using a nonlinear regression model with a sigmoidal dose response in GraphPad. The data were collected based on triplicate experiments, and presented as mean ± SD.
(§5) The resulting virus was used to infect Ba/F3 cells. After retroviral infection, Ba/F3 cells were selected by incubation with puromycin (0.7 mg/mL) for 2 weeks. For Ba/F3 cells infected by the CD74–ROS1 variants, IL3 was withdrawn from the culture medium at least 2 weeks before the experiments.

Ba/F3 ROS1 G2032R-F2075V = test: Antiproliferation assay; format: cell-based; conditions: Mus musculus, BaF3; Ba/F3 cells, cell growth inhibition
From the text: as §2, §3, §4, §5

Ba/F3 ROS1 D2033N = test: Antiproliferation assay; format: cell-based; conditions: Mus musculus, BaF3; Ba/F3 cells, cell growth inhibition
From the text: as §2, §3, §4, §5

Ba/F3 ROS1 L2086F = test: Antiproliferation assay; format: cell-based; conditions: Mus musculus, BaF3; Ba/F3 cells, cell growth inhibition
From the text: as §2, with “gene. The Ba/F3 models have been effectively employed in the discovery and preclinical development of next generation ROS1 inhibitors.[11],[14],[15] We have tested ROS1 inhibitors against these Ba/F3 cells to validate their sensitivity and resistance to ROS1 inhibition.” for “gene.”
Ba/F3 immortalized murine bone marrow–derived pro-B cells were obtained from Creative Biogene (Shirley, NY) and cultured in RPMI supplemented with 10% FBS and IL3 (0.5 ng/mL). Ba/F3 cells expressing ROS1 variants were maintained in RPMI supplemented with 10% FBS and puromycin (0.7 mg/mL). Crizotinib, ceritinib, brigatinib, repotrectinib, and lorlatinib were purchased from MedChem Express. Each compound was dissolved in DMSO and serially diluted in RPMI for cell culture experiments.
as §4
cDNA encoding CD74-ROS1 or mutant CD74–ROS1 was cloned into retroviral expression vectors (pLenti), and viruses were generated in HEK293T cells by transfecting with packaging plasmids. The resulting virus was used to infect Ba/F3 cells. After retroviral infection, Ba/F3 cells were selected by incubation with puromycin (0.7 mg/mL) for 2 weeks. For Ba/F3 cells infected by the CD74–ROS1 variants, IL3 was withdrawn from the culture medium at least 2 weeks before the experiments.

[6] = Mus musculus, BaF3, 72 h, Ba/F3 cells
[7] = Sprague-Dawley [Crl: CD (SD)], plasma, 10 mg/kg po
[8] = Sprague-Dawley [Crl: CD (SD)], plasma
[9] = Sprague-Dawley [Crl: CD (SD)], plasma, 10 mg/kg po, read-out: Tmax

| Structure (SMILES) | IC50 ([1]; Ba/F3 cells) [nM] | DC50 (ROS1) [nM] | Dmax (%) (ROS1) (ROS1) | IC50 [1, 6] [nM] | logP (Log P measurement) | microsomal CLint at 1 h, 0.25 µM [2] [µL/min/mg] | half-life at 1 h, 0.25 µM [2] [h] | AUC (iv) ([3]; 1 mg/kg iv) | microsomal CLint at 1 h, 0.25 µM [4] [µL/min/mg] | half-life at 1 h, 0.25 µM [4] [h] | Cmax at 24 h [5, 7] [ng/mL] | half-life [5, 7] [h] | bioavailability [5, 8] [%] | AUC [5, 7] [ng·h/mL] | Tmax [5, 9] [h] | IC50 (Ba/F3 ROS1-G2032R; Mus musculus, BaF3) [nM] | also measured |
| --- | --- | --- | --- | --- | --- | --- | --- | --- | --- | --- | --- | --- | --- | --- | --- | --- | --- |
| COc1cc(N2CCN(CC3CN(c4ccc5c(c4)C(=O)N(C4CCC(=O)NC4=O)C5=O)C3)CC2)ccc1Nc1ncc(Cl)c(Nc2ccccc2P(C)(C)=O)n1 (stereo not shown) [9b, 5-(3-((4-(4-((5-Chloro-4-((2-(dimethylphosphoryl)phenyl)amino)pyrimidin-2-yl)amino)-3-methoxyphenyl)piperazin-1-yl)methyl)azetidin-1-yl)-2-(2,6-dioxopiperidin-3-yl)isoindoline-1,3-dione] | 13 ± 2 | 10 | 96 |  |  |  |  |  |  |  |  |  |  |  |  |  | log P (Log P measurement): 2.84; metabolic stability in human microsomes Clint [2]: 119.5 µL/min/mg; metabolic stability in human microsomes T1/2 [2]: 0.483 h; AUC (iv) ([3]; 2 mg/kg iv): 50,451 h·ng/mL; metabolic stability in rat microsomes Clint [4]: 13.8 µL/min/mg; metabolic stability in rat microsomes T1/2 [4]: 1.675 h; AUC (po) ([5]; 10 mg/kg po): 41,622 h·ng/mL; Cmax ([5]; 10 mg/kg po): 4582 ng/mL; T1/2 ([5]; 10 mg/kg po): 4.11 h; Tmax ([5]; 10 mg/kg po): 3 h; % F ([5]; 10 mg/kg po vs 2 mg/kg iv): 16.5%; IC50 (Ba/F3 ROS1-G2032R): 153 ± 20 nM |
| COc1cc(N2CCC(N3CCN(CC4CN(c5ccc6c(c5)C(=O)N(C5CCC(=O)NC5=O)C6=O)C4)CC3)CC2)ccc1Nc1ncc(Cl)c(Nc2ccccc2P(C)(C)=O)n1 (stereo not shown) [9e, 5-(3-((4-(1-(4-((5-Chloro-4-((2-(dimethylphosphoryl)phenyl)amino)pyrimidin-2-yl)amino)-3-methoxyphenyl)piperidin-4-yl)piperazin-1-yl)methyl)azetidin-1-yl)-2-(2,6-dioxopiperidin-3-yl)isoindoline-1,3-dione] |  | 5.1 | 97 | 3.8 ± 0.2 | 2.5 | 57 | 1.01 | 20,850 h·ng/mL | 12.8 | 1.8 | 3240 | 7.7 | 12.2 | 25400 | 2 | 80 ± 27 |  |
| COc1cc(N2CCC(N3CCN(CC4CCN(c5ccc6c(c5)C(=O)N(C5CCC(=O)NC5=O)C6=O)CC4)CC3)CC2)ccc1Nc1ncc(Cl)c(Nc2ccccc2P(C)(C)=O)n1 (stereo not shown) [9f, 5-(4-((4-(1-(4-((5-Chloro-4-((2-(dimethylphosphoryl)phenyl)amino)pyrimidin-2-yl)amino)-3-methoxyphenyl)piperidin-4-yl)piperazin-1-yl)methyl)piperidin-1-yl)-2-(2,6-dioxopiperidin-3-yl)isoindoline-1,3-dione] | 11 ± 2 | 13 | 99 | 11.2 | 2.88 | 63.4 | 0.917 | 3093 ng·h/mL | 8.8 | 2.62 | 284 | 8.32 | 9.8 | 3030 | 2 | 27 ± 10 |  |
| CN1CCN(c2ccc(C(=O)Nc3n[nH]c4ccc(Cc5cc(F)cc(F)c5)cc34)c(NC3CCOCC3)c2)CC1 [entrectinib] |  |  |  |  |  |  |  |  |  |  |  |  |  |  |  | 980 ± 77 | IC50 ([1]; Mus musculus, BaF3, Ba/F3 cells): 2.4 ± 0.4 nM; IC50 (Ba/F3 ROS1 L2026M): 56 ± 7 nM; IC50 (Ba/F3 ROS1 G2032R-F2075V): > 2000 nM; IC50 (Ba/F3 ROS1 D2033N): 132 ± 15 nM; IC50 (Ba/F3 ROS1 L2086F): 506 ± 97 nM |
